Measured values taken from US7094428B2, “Hemostatic compositions, devices and methods” (The University of Medicine and Dentistry of New Jersey, priority 2000, dated 2006).

What was measured:
[1] = system: recalcified, citrated whole blood; assay: SONOCLOT clotting time of recalcified, citrated whole blood; type: biochemical
Protocol: In such studies, anti-coagulated, citrated whole blood is recalcified to initiate the clotting process in a device which sensitively monitors the formation of the clot. Studies have been expanded from whole blood to include plasma.
(§1) Results were expressed as clotting time in seconds. […] Results are expressed as mean±standard deviation.
(§2) Silver (I) ion was provided as silver nitrate, 5% stock solution. It was diluted 100 fold to 0.05%, or in some cases to 0.01% in the clotting studies. In perfusion studies, a 10 μl aliquot of the solution was applied to the filter paper then dried.
Collagen was from Sigma Chemical Co. […] Heparinase was from Haemoscope Corp. and used at a final concentration of 1 U/mL.

[2] = system: citrated blood anticoagulated with heparin; assay: SONOCLOT clotting (recalcification) time of heparinized citrated blood; type: biochemical
Protocol: as §1, §2
Collagen was from Sigma Chemical Co. In the clotting time studies, the final concentration of collagen was 0.1-0.2%. Heparinase was from Haemoscope Corp. and used at a final concentration of 1 U/mL.
Recalcification time was measured.

[3] = system: recalcified, citrated whole blood; assay: Blood perfusion (spread of blood disk) on filter paper impregnated with the composition
Protocol: as §1, §2
The size of the blood disk on the paper was measured.

[4] = system: Platelet Rich Plasma (PRP); details: 2.9 mM AgNO3, n = 8
Protocol: (§3) The hemostatic compositions of the invention were evaluated in two different systems. In one system, clotting time of recalcified, citrated whole blood in the presence of the hemostatic composition was determined using a SONOCLOT Coagulation Analyzer (Sienco Inc., Wheat Ridge Colo.). […] Results were expressed as clotting time in seconds. In a second system, the hemostatic composition was dried on a cellulose matrix (filter paper), and 7 μl aliquot of fresh blood or recalcified citrated whole blood was placed in the cellulose matrix; resulting in the spreading (perfusion) of the applied blood as an enlarging disk. Upon clotting or reduced perfusion, the further spread of the blood ceases. The surface area of the spread blood in mm^2 is used as an indication of the clotting rate of the blood. Results are expressed as mean±standard deviation. The number of samples run is indicated at the top of each data column.
(§4) This study was undertaken using platelet-rich and platelet-poor plasma to simulate an individual with normal and reduced platelet levels.

[5] = system: Platelet Poor Plasma (PPP); details: 2.9 mM AgNO3, n = 8
Protocol: as §3, §4

[6] = final concentration in blood: 1% collagen, 0.6 mM AgNO3 or the combination as labelled, n = 41
[7] = thrombin 0.025 U/mL final, silver ion 2.9 mM final, n = 8
[8] = Study I, filter paper impregnated with 5% AgNO3, 2% collagen or the combination as labelled, n = 13
[9] = Study II, filter paper impregnated with 5% AgNO3, 2% collagen or the combination as labelled, n = 5

Question: Which Clotting time [1, 6] does the source give for O=[N+]([O-])[O-].[Ag+] [silver(I), silver nitrate] here?
Answer: 220 ± 50 s

Question: What about the “clot strength, SONOCLOT tracing” value ([1]; non-heparinized blood) of the same compound?
Answer: the clot is stronger

Question: And the Clotting time ([1]; non-heparinized blood, without silver 217 seconds)?
Answer: 81 s

Question: What about the Clotting time ([1]; normal blood, 2.9 mM AgNO3, n = 8) of the same compound?
Answer: 109 ± 20 s

Question: And the Clotting time ([1]; recalcified citrated whole blood, heparin not given, silver nitrate 0.05% (in some cases 0.01%), heparinase 1 U/mL, n = 5)?
Answer: 94 ± 35 s

Question: And the “clot strength, SONOCLOT tracing” value ([1]; second study)?
Answer: stronger clot

Question: What about the Clotting time ([1]; second study, without silver 588 seconds) of the same compound?
Answer: 168 s

Question: What about the Clotting time [1, 7] of the same compound?
Answer: 91 ± 14 s

Question: What about the “clotting time (FIG. 4, C and D)” value ([2]; 0.25 U/ml heparin, 0.05% or 0.3% silver (I) ion, absence of collagen) of the same compound?
Answer: prolonged clotting time

Question: What about the Clotting time ([2]; heparinized blood, without silver 1930 seconds) of the same compound?
Answer: 872 s

Question: And the “physical characteristics of the clot (clot strength), SONOCLOT tracing” value ([2]; heparinized whole blood)?
Answer: stronger clot

Question: What about the Perfusion [3, 8] of the same compound?
Answer: 18 ± 4 mm

Question: And the Perfusion ([3]; Study II, filter paper impregnated with 1% AgNO3, n = 5)?
Answer: 42 ± 18 mm

Question: And the Perfusion [3, 9]?
Answer: 17 ± 2 mm

Question: What about the Clotting time [4] of the same compound?
Answer: 83 ± 29 s

Question: What about the Clotting time [5] of the same compound?
Answer: 128 ± 32 s

Question: How did the Clotting time [1, 6] turn out when collagen was run?
Answer: 264 ± 37 s

Question: And the Perfusion [3, 8]?
Answer: 35 ± 23 mm

Question: And the Perfusion [3, 9]?
Answer: 28 ± 10 mm

Question: For thrombin, which Clotting time [1, 7] is on record?
Answer: 156 ± 42 s

Question: How did the Clotting time ([2]; citrated blood with heparin 2 U/mL, recalcified, silver nitrate 0.05% (in some cases 0.01%), heparinase 1 U/mL, n = 5) turn out when heparin [reference compound] was run?
Answer: 1930 ± 83 s
